The target in assay [1] is T1, O-acetyl-L-serine sulfhydrylase (EhOASS) (Entamoeba histolytica, UniProt O15570). As to the kind of experiment: PLP fluorescence titration (ex […] nm, em […] nm); also […] inhibition of purified enzyme at […]. It counts as binding.
For assay [2], the target named is T1, O-acetyl-L-serine sulfhydrylase (EhOASS). The description is as above. It counts as binding. This is another data set of the same source.

This passage reports Kd results from publication PMC3280239, “Virtual Screening, Identification and In Vitro Testing of Novel Inhibitors of O-Acetyl-L-Serine Sulfhydrylase of Entamoeba histolytica” (PLoS ONE, 2012).

Read-outs that look alike come from different tables or passages of the source.

T1 sequence (O15570 entry or part of it): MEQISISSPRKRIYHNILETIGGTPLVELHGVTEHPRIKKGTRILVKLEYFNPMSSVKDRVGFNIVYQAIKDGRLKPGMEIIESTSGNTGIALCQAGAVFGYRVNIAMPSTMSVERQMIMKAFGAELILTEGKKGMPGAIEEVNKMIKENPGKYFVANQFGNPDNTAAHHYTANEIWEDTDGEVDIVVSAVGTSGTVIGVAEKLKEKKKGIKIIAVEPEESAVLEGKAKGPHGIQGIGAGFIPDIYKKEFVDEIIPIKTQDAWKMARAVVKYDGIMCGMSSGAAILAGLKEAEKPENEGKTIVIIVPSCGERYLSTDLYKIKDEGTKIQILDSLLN

A word on the Kd: it is the constant that tells how readily two partners part at equilibrium. Regarding `O=C(CSc1nc(O)cc(=O)[nH]1)c1c[nH]c2ccccc12` [ZINC08931589, 4-hydroxy-2-[2-(1H-indol-3-yl)-2-oxoethyl]sulfanyl-1H-pyrimidin-6-one], in assay [1], the Kd was ~8.05 µM.

`COc1ccc(C2C(C(C)=O)=C(O)C(=O)N2CCC(=O)O)cc1` (centres unmarked) [ZINC03984585, 3-[3-acetyl-4-hydroxy-2-(4-methoxyphenyl)-5-oxo-2,5-dihydro-1H-pyrrol-1-yl]propanoic acid] had a Kd in assay [2] of 0.18 µM. This counts as sub-micromolar.
